Test results published in patent US12678445B2, “Methods for treating glioblastoma” (BOARD OF REGENTS, THE UNIVERSITY OF TEXAS SYSTEM, priority 2020, dated 2026).

Assays:
[1] = test system: myeloid cells; assay: Macrophage / myeloid cell phenotype in GBM tumor bearing mice; format: in vivo; details: compared with myeloid specific depletion of KDM6B (increasing type I and type II IFN responses and antigen presenting pathways)
Source text: (§1) To test this hypothesis, the inventors crossed LysM^cre (Jackson Laboratory. 004781) and KDm6B^fl/fl (Jackson Laboratory, 029615) mice to generate LysM^creKDm6B^fl/fl mice. The inventors inoculated murine GBM cell lines (GL261) into the LysM^creKDm6B^fl/fl mice (FIG. 5). […] The pre-clinical data provide a strong rationale of testing KDM6B inhibitor in clinic in combination with immune checkpoint therapy.

[2] = test system: murine GBM cell lines (GL261); assay: GBM (GL261) tumor bearing mice: tumor growth and survival; format: in vivo; details: FIG. 4
Source text: as §1

SMILES: CCOC(=O)CCNc1cc(N2CCc3ccccc3CC2)nc(-c2ccccn2)n1 [GSK-J4]
- changes of macrophage phenotype [1]: could recapitulate the changes of macrophage phenotype
- survival [2]: improved survival
- tumor growth [2]: attenuated tumor growth
